Results published in BindingDB's records for doi:10.1021/acs.jmedchem.8b00106 (China Pharmaceutical University, 2018).
pEC50: −log10 of the molar value.

Assay: Agonist activity at VDR in human HL60 cells assessed as induction of cell differentiation after 96 hrs by NBT assay

| pEC50 | SMILES |
| --- | --- |
| < 5.00 | CCn1c(C(=O)N(CCC#N)CCC#N)ccc1C(CC)(CC)c1ccc(OCCC(O)(CC)CC)c(C)c1 |
| < 5.00 | C=CCN(C)C(=O)c1ccc(C(CC)(CC)c2ccc(OCCC(O)(CC)CC)c(C)c2)n1CC |
| 5.22 | C#CCCOC(=O)c1ccc(C(CC)(CC)c2ccc(OCCC(O)(CC)CC)c(C)c2)n1CC |
| < 5.00 | CCn1c(C(=O)Oc2ccc(CC(=O)OC)cc2)ccc1C(CC)(CC)c1ccc(OCCC(O)(CC)CC)c(C)c1 |
| < 5.00 | CCn1c(C(=O)Nc2ccc(OC(F)(F)F)cc2)ccc1C(CC)(CC)c1ccc(OCCC(O)(CC)CC)c(C)c1 |
| 5.79 | CCOc1ccc(NC(=O)c2ccc(C(CC)(CC)c3ccc(OCCC(O)(CC)CC)c(C)c3)n2CC)cc1 |
| < 5.00 | CCC(C)C(NC(=O)c1ccc(C(CC)(CC)c2ccc(OCCC(O)(CC)CC)c(C)c2)n1CC)C(=O)OC (stereo unspecified) |
| 6.07 | CCC(C)C(NC(=O)c1ccc(C(CC)(CC)c2ccc(OCCC(O)(CC)CC)c(C)c2)n1CC)C(=O)O (stereo unspecified) |
| 7.05 | CCn1c(C(=O)N(C)CC(=O)O)ccc1C(CC)(CC)c1ccc(OCCC(O)(CC)CC)c(C)c1 |
| 7.18 | CCn1c(C(=O)NC(C)C(=O)O)ccc1C(CC)(CC)c1ccc(OCCC(O)(CC)CC)c(C)c1 (stereo unspecified) |
| 6.35 | CCC(C)C(CO)NC(=O)c1ccc(C(CC)(CC)c2ccc(OCCC(O)(CC)CC)c(C)c2)n1CC (stereo unspecified) |
| 7.28 | CCn1c(C(=O)N(C)CCO)ccc1C(CC)(CC)c1ccc(OCCC(O)(CC)CC)c(C)c1 |
| 7.02 | CCn1c(C(=O)NC(C)CO)ccc1C(CC)(CC)c1ccc(OCCC(O)(CC)CC)c(C)c1 (stereo unspecified) |
| 7.96 | CCN(CC)CCCNC(=O)c1ccc(C(CC)(CC)c2ccc(OCCC(O)(CC)CC)c(C)c2)n1CC |
| 8.64 | CCN(CC)CCNC(=O)c1ccc(C(CC)(CC)c2ccc(OCCC(O)(CC)CC)c(C)c2)n1CC |
| 5.97 | CCn1c(C(=O)NCC#N)ccc1C(CC)(CC)c1ccc(OCCC(O)(CC)CC)c(C)c1 |
| 8.07 | CCn1c(C(=O)NC(C)CO)ccc1C(CC)(CC)c1ccc(OCC(O)C(C)(C)C)c(C)c1 (stereo unspecified) |
| 8.30 | CCn1c(C(=O)NCCCN(C)C)ccc1C(CC)(CC)c1ccc(OCCC(O)(CC)CC)c(C)c1 |
| 6.62 | CCn1c(C(=O)NCCCN2CCOCC2)ccc1C(CC)(CC)c1ccc(OCCC(O)(CC)CC)c(C)c1 |
| 7.09 | CCn1c(C(=O)NCCN(C)C)ccc1C(CC)(CC)c1ccc(OCCC(O)(CC)CC)c(C)c1 |
| 6.81 | CCn1c(C(=O)NCCN)ccc1C(CC)(CC)c1ccc(OCCC(O)(CC)CC)c(C)c1 |
| 5.58 | C#CC(C)OC(=O)c1ccc(C(CC)(CC)c2ccc(OCCC(O)(CC)CC)c(C)c2)n1CC (stereo unspecified) |
| 5.23 | CCn1c(C(=O)Nc2cccc(C(F)(F)F)c2)ccc1C(CC)(CC)c1ccc(OCCC(O)(CC)CC)c(C)c1 |
| 6.28 | CCOC(=O)CN(C)C(=O)c1ccc(C(CC)(CC)c2ccc(OCCC(O)(CC)CC)c(C)c2)n1CC |
| 7.59 | CCn1c(C(=O)NC(CC(=O)O)C(=O)OC)ccc1C(CC)(CC)c1ccc(OCCC(O)(CC)CC)c(C)c1 (stereo unspecified) |
| 5.60 | CCn1c(C(=O)NC(CO)CCO)ccc1C(CC)(CC)c1ccc(OCCC(O)(CC)CC)c(C)c1 (stereo unspecified) |
